Key:
[1] = tested on: C. reinhardtii CC-1928; experiment: Effect of copper on activity of hydrazones: in vitro growth inhibition of C. reinhardtii in TAP Cu minus / TAP Cu plus medium (Example 10); format: cell-based, Chlamydomonas reinhardtii; settings: test compound 1 μg/mL, 48 h; for inhibition of growth at 1 µg/mL: Chlamydomonas reinhardtii, TAP Cu minus medium, read-out: % Inhn. Minus Copper Observed; for % Inhn. Plus Copper Observed: TAP Cu plus medium (CuCl2)
Procedure, shortened: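 Washed cells (suspension 2×10^5 spores per mL) added to compound at 1 μg/mL in Chelex-treated TAP Cu minus or TAP Cu plus (20 μM CuCl2). After 48 h at 27 °C, growth read by light scattering; % inhibition vs compound-free wells, plus-Cu predicted values by Colby formula from minus-Cu data.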

[2] = tested on: C. reinhardtii; experiment: Growth inhibition of C. reinhardtii by hydrazones and isolated metal-hydrazone complexes, TAP Cu minus medium (Example 12); format: cell-based, Chlamydomonas reinhardtii; settings: for inhibition of growth at 1 µg/mL: Chlamydomonas reinhardtii, parent hydrazone 1 μg/mL, read-out: Hydrazone % Inhn.
Description: In vitro toxicity assays against C. reinhardtii CC-1928 (wild type mt+137c green in dark subclone) obtained from the Chlamydomonas Resource Center at Duke University were conducted using TAP liquid growth medium described by Gorman and Levine Proc. Natl. Acad. Sci. USA 1965, 54, 1665-1669 except that CuSO4.5H2O, normally included as a component of Hutner's trace element stock solution (Hutner et al. Proc. Am. Philos. Soc. 1950, 94, 152-170), was omitted. The TAP medium lacking Cu (TAP Cu minus) was prepared by adding 400 mg NH4Cl, 10 mL of 100× Tris-Acetate (242 g Tris-base and 100 mL glacial acetic acid in 1000 mL milli Q water), and 8.3 mL of 120.5× phosphate buffer (14.34 g K2HPO4 and 7.26 g KH2PO4 in 1000 mL milli Q water) to milli Q water to make a total volume of 1 liter. The medium was treated with 0.5 g Chelex 100 resin (Bio-Rad Analytical grade, 50-100 mesh, sodium form, cat#142-2822) by stirring at room temperature for 1 hour. 900 mL were decanted and 45.9 mg of CaCl2.2H2O, 90 mg of MgSO4.7H2O and 0.9 mL Hutner's trace elements lacking CuSO4.5H2O were added and the solution was filter-sterilized. Medium containing copper (TAP Cu plus) was prepared by adding CuCl2.2H2O to the TAP Cu minus medium at 20 μM. Test compounds were dissolved in dimethylsulfoxide (DMSO) at 2 mg/mL then dilutions in TAP Cu minus and TAP Cu plus media were prepared in sterilized microcentrifuge tubes at 2 μg/mL. 100 μL aliquots of diluted compound were dispensed into flat-bottomed 96-well microtiter plates. C. reinhardtii was maintained under 12 h of light on TAP agar plates at 18° C. A loopful of cells was added to 50 mL of TAP Cu minus medium and the culture incubated with shaking at 200 rpm at 27° C. for 24 h. The culture (10 to 20 mL aliquot) was centrifuged in a bench centrifuge at 2000 rpm for 2 min. The resulting cell pellet was resuspended in 5 mL sterile milli Q water (which had been treated with Chelex 100 resin using 0.5 g resin per liter of water by stirring at room temperature for 1 h), and recentrifuged. The cells were resuspended in TAP Cu minus medium, and the suspension adjusted to 2×10^5 spores per mL. Microtiter plates containing compounds as described above were inoculated with 100 μL of this cell suspension and the plates incubated at 27° C. for 48 h before assessing algal growth by measuring light scattering in a NepheloStar plate-reader. Growth inhibition was determined by comparing growth in the presence of test compound with growth in control wells lacking test compound. Hydrazones and their isolated metal complexes were compared with respect to their in vitro activity toward C. reinhardtii and the cyanobacterium (blue-green alga) Synechocystis sp. strain 6803. Metal complexes of hydrazones were prepared by precipitation from ethanol with various metal salts at 1:1, 2:1 or 3:1 molar ratios, as described in general by Ainscough, Brodie, Dobbs, Ranford, and Waters (Inorganica Chimica Acta 1998, 267, 27-38, which is expressly incorporated by reference herein). In vitro assays against C. reinhardtii were conducted as described in Example 10 using TAP Cu minus medium. Growth inhibition was determined by comparing growth in the presence of test compound with growth in control wells lacking test compound. Results for growth inhibition of C. reinhardtii by hydrazones and corresponding isolated metal complexes (each at 1 μg/mL) are shown in Table 6.

[3] = tested on: Synechocystis sp. strain 6803; experiment: Growth inhibition of Synechocystis by hydrazones and isolated metal-hydrazone complexes, BG-11 Cu minus medium (Example 12); format: cell-based; settings: Synechocystis, Test Concn. 0.05 μg/ml, read-out: Hydrazone % Inhn.
Description: In vitro toxicity assays against the cyanobacterium (blue-green alga) Synechocystis sp. strain 6803 were conducted using BG-11 medium except that copper micronutrient, normally included as CuSO4.5H2O, was omitted. The medium, termed BG-11 Cu minus, was prepared by dissolving 1.5 g NaNO3, 40 mg K2HPO4, 6 mg citric acid, 1 mg Na2EDTA and 20 mg Na2CO3 in 1 liter of milli Q water and treating the solution with 0.5 g Chelex 100 resin (Bio-Rad Analytical grade, 50-100 mesh, sodium form, cat#142-2822) by stifling at room temperature for 1 h. 900 mL were decanted and 67.5 mg MgSO4.7H2O, 32.4 mg […], 5.4 mg ferric ammonium citrate and 0.9 mL trace metal mix A5 without copper (2.86 g H3BO3, 1.81 g MnCl2.4H2O, 222 mg ZnSO4.7H2O, 390 mg Na2MoO4.2H2O and Co(NO3)2.6H2O in 1 L Milli Q water) was added. The pH was adjusted to 7.1 and the medium was filter-sterilized. Medium containing copper (BG-11 Cu plus) was prepared by adding CuCl2.2H2O to the BG-11 Cu minus medium at 0.2 μM. Test compounds were dissolved in dimethylsulfoxide (DMSO) at 2 mg/mL then appropriate dilutions in BG-11 Cu minus and BG-11 Cu plus media were prepared in sterilized microcentrifuge tubes. 100 μL aliquots were dispensed into flat-bottomed 96-well microtiter plates. Synechocystis was maintained under 24 h of light on BG-11 agar plates at 27° C. A loopful of cells was added to 50 mL of BG-11 Cu minus growth medium and the culture was incubated with shaking at 200 rpm at 27° C. for 24 h. The culture (10 to 20 mL aliquot) was centrifuged in a bench centrifuge at 2400 rpm for 2 min. The resulting cell pellet was resuspended in 5 mL sterile milli Q water (which had been treated with Chelex 100 resin using 0.5 g resin per liter of water by stirring at room temperature for 1 h), and recentrifuged. The cells were resuspended in BG-11 Cu minus medium, and the suspension adjusted to 4×10^5 spores per mL. Microtiter plates containing compounds as described above were inoculated with 100 μL of this cell suspension and the plates incubated at 27° C. for 72 h before assessing algal growth by measuring light scattering in a NepheloStar plate reader. Growth inhibition was determined by comparing growth in the presence of test compound with growth in control wells lacking test compound. Hydrazones and their isolated metal complexes were compared with respect to their in vitro activity toward C. reinhardtii and the cyanobacterium (blue-green alga) Synechocystis sp. strain 6803. Metal complexes of hydrazones were prepared by precipitation from ethanol with various metal salts at 1:1, 2:1 or 3:1 molar ratios, as described in general by Ainscough, Brodie, Dobbs, Ranford, and Waters (Inorganica Chimica Acta 1998, 267, 27-38, which is expressly incorporated by reference herein). In vitro assays against Synechocystis were conducted as described in Example 11 using BG-11 Cu minus medium. Growth inhibition was determined by comparing growth in the presence of test compound with growth in control wells lacking test compound.

melting point | SMILES | inhibition of growth at 1 µg/mL [1] | % Inhn. Plus Copper Observed [1] | inhibition of growth at 1 µg/mL [2] | inhibition of growth at 0.05 µg/mL [3] | Complex % Inhn. ([2]; isolated metal complex 1 μg/mL)
– | O=C(N/N=C/c1cc(Cl)cc(Cl)c1O)c1ccc(Cl)cc1 [Compound 64] | -5% | 97% | -5% | – | –
245 to 246 °C | C/C(=N\NC(=O)c1cccc(Cl)c1)c1cc(Cl)cc(Cl)c1O [Compound 65] | -5% | 97% | -5% | – | –
232 to 234 °C | O=C(N/N=C/c1cc(Cl)cc(C(F)(F)F)c1O)c1ccc(Cl)cc1 [Compound 66] | -4% | 97% | -4% | – | –
214 to 217 °C | O=C(N/N=C/c1cc(C(F)(F)F)ccc1O)c1ccccc1 [Compound 68] | – | – | – | 16% | –
– | C/C(=N\NC(=O)c1cccc(C)c1)c1cc(Cl)cc(Cl)c1O.[Cl-].[Cl-].[Cu+2] [Compound 90] | – | – | – | – | 49%

Reference: patent publication US8906829B2, “Synergistic algicidal compositions including hydrazone derivatives and copper” (Dow AgroSciences LLC, priority 2010, dated 2014)
